# Molecular target: T1, human B1 receptor (Homo sapiens, UniProt P46663)
# T1 construct: expressed in transfected cells
# T1 sequence (P46663 1-353): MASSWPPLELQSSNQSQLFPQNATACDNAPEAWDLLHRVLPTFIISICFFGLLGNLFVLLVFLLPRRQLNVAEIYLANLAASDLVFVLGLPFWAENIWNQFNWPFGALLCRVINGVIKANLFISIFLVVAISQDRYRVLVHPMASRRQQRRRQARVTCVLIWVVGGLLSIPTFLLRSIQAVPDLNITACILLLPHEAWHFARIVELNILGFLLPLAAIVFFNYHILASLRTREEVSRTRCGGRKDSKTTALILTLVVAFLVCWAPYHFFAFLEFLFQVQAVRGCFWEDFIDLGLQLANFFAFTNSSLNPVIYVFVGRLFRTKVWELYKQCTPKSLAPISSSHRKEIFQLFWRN
# Assay: In vitro assay of human B1 receptor function using calcium flux (aequorin luminescence)
# Assay type: cell-based
# Settings: CHO D-/hB1/Aequorin cells, agonist 20 nM des-Arg10-Kallidin (EC80); read-out: binding IC50's to hB1 receptor function
# Protocol: Activation of the Gq linked B1 receptor results in an increase in intracellular calcium. […] Aequorin is a 21-kDa photoprotein that forms a bioluminescent complex when linked to the chromophore cofactor coelenterazine.
# Following coelenterazine incubation, an automated flash-luminometer platform was used to dispense the B1 antagonist compounds (dissolved in DMSO and diluted with buffer to the desired concentration (final DMSO concentration <1% DMSO)) to the cell plate, a CCD camera situated underneath the cell plate took 12 images of the cell plate at 5 second intervals to determine if there was any agonist activity with the compounds. The hB1 agonist, des-Arg10-Kallidin, was added to the cell plate and another 12 images were recorded to determine the IC50 of the antagonist(s).
row,IC50 [nM],Structure (SMILES)
1,< 10,CC(C)NCc1ccc2c(c1)CCC[C@H]2NC(=O)C[C@@H](NS(=O)(=O)c1ccc(Cl)c(Cl)c1)c1ccccc1
2,< 10,"O=C(CC(NS(=O)(=O)c1cccc(C(F)(F)F)c1)c1ccc(F)cc1)N[C@@H]1CCCc2cc(CN3CCCCC3)ccc21 (stereo in doubt) [ba, (3S)-3-(4-fluorophenyl)-N-((1R)-6-(1-piperidinylmethyl)-1,2,3,4-tetrahydro-1-naphthalenyl)-3-(((3-(trifluoromethyl)phenyl)sulfonyl)amino)propanamide]"
3,< 10,"O=C(C[C@@H](NS(=O)(=O)c1cccc(C(F)(F)F)c1)c1ccccc1)N[C@@H]1CCOc2cc(CN3CCCCC3)ccc21 [Example 166, (3R)-3-Phenyl-N-((4R)-7-(1-piperidinylmethyl)-3,4-dihydro-2H-chromen-4-yl)-3-(((3-(trifluoromethyl)phenyl)sulfonyl)amino)propanamide]"
4,< 10,"O=C(C[C@@H](NS(=O)(=O)c1ccc(Cl)c(Cl)c1)c1ccccc1)N[C@@H]1CCOc2cc(CN3CCCCC3)ccc21 [Example 168, (3R)-3-(((3,4-Dichlorophenyl)sulfonyl)amino)-3-phenyl-N-((4R)-7-(1-piperidinylmethyl)-3,4-dihydro-2H-chromen-4-yl)propanamide]"
5,< 10,"O=C(C[C@@H](NS(=O)(=O)c1ccc(Cl)c(Cl)c1)c1ccccc1)N[C@@H]1CCOc2cc(CN3CCOCC3)ccc21 [Example 169, (3R)-3-(((3,4-Dichlorophenyl)sulfonyl)amino)-N-((4R)-7-(4-morpholinylmethyl)-3,4-dihydro-2H-chromen-4-yl)-3-phenylpropanamide]"
6,< 10,"CC(C)(C)NCc1ccc2c(c1)OCC[C@H]2NC(=O)C[C@@H](NS(=O)(=O)c1cccc(C(F)(F)F)c1)c1ccccc1 [Example 170, (3R)-N-((4R)-7-(((1,1-Dimethylethyl)amino)methyl)-3,4-dihydro-2H-chromen-4-yl)-3-phenyl-3-(((3-(trifluoromethyl)phenyl)sulfonyl)amino)propanamide]"
7,< 10,"CN1c2cc(CN3CCCCC3)ccc2[C@@H](NC(=O)C[C@@H](NS(=O)(=O)c2ccc3ccccc3c2)c2ccccc2)CS1(=O)=O [Example 175, (3R)-N-((4R)-1-Methyl-2,2-dioxido-7-(1-piperidinylmethyl)-3,4-dihydro-1H-2,1-benzothiazin-4-yl)-3-((2-naphthalenylsulfonyl)amino)-3-phenylpropanamide]"
8,< 10,"O=C(C[C@@H](NS(=O)(=O)c1ccc2ccccc2c1)c1ccccc1)N[C@H]1CCc2cc(CN3CCCCC3)ccc21 [Example 176, (3R)-3-((2-Naphthalenylsulfonyl)amino)-3-phenyl-N-((1S)-5-(1-piperidinylmethyl)-2,3-dihydro-1H-inden-1-yl)propanamide]"
9,< 10,"O=C(C[C@@H](NS(=O)(=O)c1cccc(C(F)(F)F)c1)c1ccccc1)N[C@@H]1CCOc2cc(CN3CCC(F)CC3)ccc21 [Example 185, (3R)-N-((4R)-7-((4-Fluoro-1-piperidinyl)methyl)-3,4-dihydro-2H-chromen-4-yl)-3-phenyl-3-(((3-(trifluoromethyl)phenyl)sulfonyl)amino)propanamide]"
10,< 10,"O=C(C[C@@H](NS(=O)(=O)c1cccc(C(F)(F)F)c1)c1ccccc1)N[C@@H]1CCOc2cc(CN3CCC(F)(F)CC3)ccc21 [Example 198, (3R)-N-((4R)-7-((4,4-Difluoro-1-piperidinyl)methyl)-3,4-dihydro-2H-chromen-4-yl)-3-phenyl-3-(((3-(trifluoromethyl)phenyl)sulfonyl)amino)propanamide]"
11,< 10,"C=C(CN1CCCCC1)c1ccc2c(c1)CCC[C@H]2NC(=O)C[C@@H](NS(=O)(=O)c1ccc(Cl)c(Cl)c1)c1ccccc1 [Example 218d, (3R)-3-(((3,4-dichlorophenyl)sulfonyl)amino)-3-phenyl-N-((1R)-6-(1-(1-piperidinylmethyl)ethenyl)-1,2,3,4-tetrahydro-1-naphthalenyl)propanamide]"
12,< 10,"C=C(CN1CC[C@H](O)C1)c1ccc2c(c1)CCC[C@H]2NC(=O)C[C@@H](NS(=O)(=O)c1cccc(C(F)(F)F)c1)c1ccccc1 [Example 218j, (3R)-N-((1R)-6-(1-(((3S)-3-hydroxy-1-pyrrolidinyl)methyl)ethenyl)-1,2,3,4-tetrahydro-1-naphthalenyl)-3-phenyl-3-(((3-(trifluoromethyl)phenyl)sulfonyl)amino)propanamide]"
13,< 10,"C=C(CN1CCCC1)c1ccc2c(c1)CCC[C@H]2NC(=O)C[C@@H](NS(=O)(=O)c1cccc(C(F)(F)F)c1)c1ccccc1 [Example 218q, (3R)-3-phenyl-N-((1R)-6-(1-(1-pyrrolidinylmethyl)ethenyl)-1,2,3,4-tetrahydro-1-naphthalenyl)-3-(((3-(trifluoromethyl)phenyl)sulfonyl)amino)propanamide]"
14,< 10,"C=C(CN1CCCCC1)c1ccc2c(c1)CCC[C@H]2NC(=O)C[C@@H](NS(=O)(=O)c1cccc(C(F)(F)F)c1)c1ccccc1 [Example 218r, (3R)-3-phenyl-N-((1R)-6-(1-(1-piperidinylmethyl)ethenyl)-1,2,3,4-tetrahydro-1-naphthalenyl)-3-(((3-(trifluoromethyl)phenyl)sulfonyl)amino)propanamide]"
15,< 10,"CC(C)CNC(C)c1ccc2c(c1)CCC[C@H]2NC(=O)C[C@@H](NS(=O)(=O)c1cccc(C(F)(F)F)c1)c1ccccc1 (stereo partly drawn) [Example 220a, (3R)-3-((hydroxy(oxido)(3-(trifluoromethyl)phenyl)-lambda-4—sulfanyl)amino)-N-((1R)-6-((1R)-1-((2-methylpropyl)amino)ethyl)-1,2,3,4-tetrahydro-1-naphthalenyl)-3-phenylpropanamide]"
16,< 10,CC(C)CNC(C)c1ccc2c(c1)CCC[C@H]2NC(=O)C[C@@H](NS(=O)(=O)c1ccc2ccccc2c1)c1ccccc1 (stereo partly drawn) [Example 220g]
17,< 10,"CC(C)(C)NCc1ccc2c(c1)CCC[C@H]2NC(=O)C[C@H](NS(=O)(=O)c1cccc(C(F)(F)F)c1)c1ccc(F)cc1 [a, (3S)-N-((1R)-6-(((1,1-dimethylethyl)amino)-methyl)-1,2,3,4-tetrahydro-1-naphthalenyl)-3-(4-fluorophenyl)-3-(((3-(trifluoromethyl)phenyl)-sulfonyl)amino)propanamide]"
18,< 10,"CN([C@H](CC(=O)N[C@@H]1CCCc2cc(CN3CCCCC3)ccc21)c1ccccc1)S(=O)(=O)c1cccc(C(F)(F)F)c1 [aa, (3R)-3-(methyl((3-(trifluoromethyl)phenyl)sulfonyl)amino)-3-phenyl-N-((1R)-6-(1-piperidinylmethyl)-1,2,3,4-tetrahydro-1-naphthalenyl)propanamide]"
19,< 10,"Cc1c(S(=O)(=O)N[C@H](CC(=O)NC2CCCc3cc(CNC(C)(C)C)ccc32)c2ccccc2)sc2ccc(Cl)cc12 (stereo partly drawn) [ad, (3R)-3-(((5-chloro-3-methyl-1-benzothien-2-yl)sulfonyl)amino)-N-(6-(((1,1-dimethylethyl)amino)methyl)-1,2,3,4-tetrahydro-1-naphthalenyl)-3-phenylpropanamide]"
20,< 10,"Cc1c(S(=O)(=O)N[C@H](CC(=O)NC2CCCc3cc(CN4CCCCC4)ccc32)c2ccccc2)sc2ccc(Cl)cc12 (stereo partly drawn) [ae, (3R)-3-(((5-chloro-3-methyl-1-benzothien-2-yl)sulfonyl)amino)-3-phenyl-N-(6-(1-piperidinylmethyl)-1,2,3,4-tetrahydro-1-naphthalenyl)propanamide]"
21,< 10,"O=C(C[C@@H](NS(=O)(=O)c1cccc(C(F)(F)F)c1)c1ccccc1)N[C@@H]1CCCc2cc(CN3CC=CCC3)ccc21 [am, (3R)-N-((1R)-6-(3,6-dihydro-1(2H)-pyridinylmethyl)-1,2,3,4-tetrahydro-1-naphthalenyl)-3-phenyl-3-(((3-(trifluoromethyl)phenyl)sulfonyl)amino)propanamide]"
22,< 10,"COc1ccc([C@@H](CC(=O)N[C@@H]2CCCc3cc(CN4CCCCC4)ccc32)NS(=O)(=O)c2cc3cc(Cl)ccc3s2)cn1 [aw, (3R)-3-(((5-chloro-1-benzothien-2-yl)sulfonyl)amino)-3-(6-(methyloxy)-3-pyridinyl)-N-((1R)-6-(1-piperidinylmethyl)-1,2,3,4-tetrahydro-1-naphthalenyl)propanamide]"
23,< 10,"COc1ccc([C@@H](CC(=O)N[C@@H]2CCCc3cc(CN4CCCCC4)ccc32)NS(=O)(=O)c2cccc(C(F)(F)F)c2)cn1 [ay, (3R)-3-(6-(methyloxy)-3-pyridinyl)-N-((1R)-6-(1-piperidinylmethyl)-1,2,3,4-tetrahydro-1-naphthalenyl)-3-(((3-(trifluoromethyl)phenyl)sulfonyl)amino)propanamide]"
24,< 10,"CC(C)CNCc1ccc2c(c1)CCC[C@H]2NC(=O)C[C@@H](NS(=O)(=O)c1ccc(Cl)c(Cl)c1)c1ccccc1 [bg, (3R)-3-(((3,4-dichlorophenyl)sulfonyl)amino)-N-((1R)-6-(((2-methylpropyl)amino)methyl)-1,2,3,4-tetrahydro-1-naphthalenyl)-3-phenylpropanamide]"
